Tested on: IDO1 gene expression in THP-1 cells
Test: Induction of IDO1 in THP-1 cells (RT-qPCR)
Type: cell-based, human
Conditions: for IDO1 expression (fold change): 96 hours, normalised to HPRT1, vs DMSO control
Description: THP-1 cells were harvested from appropriate number of T75 flasks. Cells were counted in a Bürker chamber, stained with 0.4% Trypan Blue. The appropriate number of cells for each experiment were transferred to a new tube and centrifuged at 1200 rpm, 5 min at room temperature (RT). The supernatant was discarded and fresh RPMI with 5% FBS were added to get a cell concentration of 2×10^5 cells/mL. The compound was added to the five separate wells in 6-well plates such that five different final concentrations were obtained after adding the cells. A control was added to one well in the 6-well plate to which cells were added. 1×10^6 cells per well were seeded out to achieve a total volume of 5 mL per well. The cells were incubated at 37° C. in 5% CO2 for 96 hours. After 96 hours the assay was stopped and the cells were lysed for the isolation of RNA.
Total RNA was extracted from THP-1 cells using the RNA RNeasy Mini extraction kit (Qiagen), according to the manufacturer's instructions. A SuperScript® VILO™ RT-kit (Thermo Fisher) was used to reverse transcribe 1 μg of total RNA to cDNA and qPCR was performed. The primers used for amplification of the human IDO1 gene were 5″-[…]-3″ (forward; SEQ ID No. 1) and 5″-[…]-3″ (reverse; SEQ ID No. 2). The primers used for amplification of the endogenous reference gene for human HPRT1 were 5″-[…]-3″ (forward; SEQ ID No. 3) and 5″-[…]-3″ (reverse; SEQ ID No. 4). In brief, RT-qPCR was performed in 20 μl reaction, consisting 10 μl PowerUp SYBR Green Master Mix, 0.5 μM of each primer, 4 μl diluted cDNA for amplification of IDO1 and 1.5 μl diluted cDNA for amplification of HPRT1. An iCycler iQ real-time detection system (Stratagene, Mx3000P, La Jolla, Calif., USA) with the following thermal profile: UDG incubation at 50° C. for 2 min, then denaturation at 95° C. for 5 min, followed by 45 cycles at 94° C. for 15 s, 58° C. for 30 s, and 60° C. for 30 s, was used to perform thermocycling and real-time detection of PCR products. After amplification a melting curve analysis was performed. The RT-qPCR experiments were always run in triplicate. IDO1 was normalised to the geometric means of two HPRT1 reference gene, using the ΔCt method. Within-group comparisons were normalized to one control sample, using the ΔΔCt method.
The procedure under “Induction of IDO1 in THP-1 cells” was followed such that the final concentrations set out in Table 1 were obtained.
Following RNA extraction and quantification of gene expression by RT-qPRC, as described above, induction of IDO1 gene expression using Samples 1 to 6 was investigated.

With `Nc1ncn([C@H]2C[C@H](OP(=O)(O)OC[C@H]3O[C@@H](n4cnc5c(=O)[nH]c(N)nc54)C[C@@H]3O)[C@@H](CO)O2)c(=O)n1` [guadecitabine] the “IDO1 expression (fold change)” value (0.1 micromolar) was 2.1 fold change, the “IDO1 expression (fold change)” value (0.3 micromolar) was 4.7 fold change and the “IDO1 expression (fold change)” value (1 micromolar) was 34 fold change. The “IDO1 expression (fold change)” value (3 micromolar) was 68 fold change, the “IDO1 expression (fold change)” value (10 micromolar) was 74 fold change and the “increase of IDO1 gene expression (maximum over tested concentrations)” value (guadecitabine alone, 0.1-10 micromolar, highest induction at 10 micromolar) was “up to 74 fold”.
